Reference: paper PMC3981819, “Signaling Properties and Pharmacological Analysis of Two Sulfakinin Receptors from the Red Flour Beetle, Tribolium castaneum” (PLoS ONE, 2014)
Square brackets hold non-standard residues; d marks the D form. Ends that are not written are not given here. pGlu = O=C1CC[C@@H](C(=O)O)N1

How the values were obtained:
[1] = test system: Trica-SKR1; assay: Aequorin-luminescence assay, CHO-WTA11 cells (Gα16) transfected with Trica-SKR1; type: cell-based, Tribolium castaneum; details: for % Trica-SKR1 (relative activation): peptide at 1 μM, relative to sTrica-SK(5–13) at 1 μM = 100%, at least three biological repeats, each in duplicate
Method: (§1) General pharmacological studies were performed in Chinese Hamster Ovary (CHO) WTA11 cells, stably coexpressing apoaequorin, a zeocin resistance gene and the promiscuous Gα16, which couples most agonist-induced GPCRs to the phospholipase C and Ca^2+ pathway irrespective of their natural signaling cascade. CHO-PAM28 cells stably expressing apoaequorin and a puromycin resistance gene but not Gα16 and HEK293T cells (Invitrogen) were used to determine possible effects on Ca^2+ and/or cAMP second messenger systems, respectively. All cell lines were cultured in Dulbecco’s Modified Eagles Medium nutrient mixture F12-Ham (DMEM/F12; Invitrogen) supplemented with 1% penicillin/streptomycin (10000 units/ml penicillin and 10 mg/ml streptomycin in 0.9% NaCl; Invitrogen) to prevent bacterial contamination of gram-positive and gram-negative bacteria. In CHO-WTA11 culture medium 250 μg/ml zeocin (Invitrogen) was added as a selection marker, while CHO-PAM28 culture medium was supplemented with 5 μg/ml puromycin to select cells stably expressing apoaequorin. All cell culture media were supplemented with 10% fetal bovine serum (inactivated at […]; Sigma-Aldrich).
(§2) Cells were cultured in vitro as a monolayer at 37°C with a constant supply of 5% CO2 and were subcultivated twice a week. Transfections of cells were performed in T75 flasks at 60–80% confluency. Transfection reagent for CHO cells was prepared by combining 3.75 ml Opti-MEM I (Invitrogen), 7.5 μg plasmid DNA and 18.75 μl of Plus Reagent (Invitrogen). After gently mixing and 5 min incubation at room temperature 45 μl of Lipofectamine LTX was added to the mixture. This transfection medium was incubated for 30 min at room temperature and added dropwise to the cells, supplemented with 3 ml of fresh culture medium. HEK 293T cells were cotransfected with a receptor construct (6 μg) and CRE-luciferase reporter construct (3 μg), consisting of the open reading frame of the luciferase gene, downstream of a multimerized cAMP-response-element (CRE) and promoter. After transfection, cells were grown overnight before an additional 20 ml of culture medium was supplemented. Cells were again incubated overnight for a final growth phase before luminescence screens were performed.
(§3) The aequorin luminescence assay was used to measure Ca^2+ signaling in CHO cell lines. Cells were detached using phosphate buffered saline (PBS) containing 0.2% EDTA and collected in 10 ml of DMEM/F-12 (without phenol red, with L-glutamine and 10 mM HEPES; Gibco). The viable cells were quantified using a NucleoCounter NC-100 (Chemometic). Cells were pelleted by 4 min centrifugation at 800 rpm at room temperature and resuspended in DMEM/BSA (DMEM/F-12 without phenol red, with L-glutamine and 10 mM HEPES, 0.1% bovine serum albumin) at a concentration of 5×10^6 cells/ml. Cells were then shielded from light and Coelenterazine H (Invitrogen) was added at a final concentration of 5 μM. Cells were gently shaken at room temperature for 4 h under dark conditions, allowing the aequorin holoenzyme to be reconstituted. After a 10-fold dilution in DMEM/BSA, cells were incubated another 30 min under the same conditions. Pharmacological ligands were dissolved in DMEM/BSA and 50 μl of ligand was added to wells of a 96-well plate. Wells containing 50 μl of DMEM/BSA were used as a negative control, while wells containing 1 μM of ATP served as positive control. Incubated cells were added to the wells of the 96-well plate and light emission was measured for 30 s using a Mithras LB940 (Berthold Technologies). After 30 s Triton X-100 (0.2% in DMEM/BSA) was added, lysing the cells and thus serving as an internal reference. Light emission was measured for an additional 8 s after Triton X-100 was introduced in the wells. Light emission from each well was calculated relative to the total response (ligand+Triton X-100) using the output file of Mikrowin2000 software (Mikrotek). Further analysis was done in Graphpad Prism 5.

[2] = test system: Trica-SKR2; assay: Aequorin-luminescence assay, CHO-WTA11 cells (Gα16) transfected with Trica-SKR2; type: cell-based, Tribolium castaneum; details: for % Trica-SKR2 (relative activation): peptide at 1 μM, relative to sTrica-SK(5–13) at 1 μM = 100%, at least three biological repeats, each in duplicate
Method: as §1, §2, §3

[3] = target: Tribolium castaneum sulfakinin receptor 1 (T. castaneum)
[4] = target: Tribolium castaneum sulfakinin receptor 2 (T. castaneum)

Row | aequorin bioluminescence in CHO-WTA11 cells transfected with the receptor, peptide at 1 μM, % of the response to 1 μM sTrica-SK(5–13) [3] [%] | aequorin bioluminescence in CHO-WTA11 cells transfected with the receptor, peptide at 1 μM, % of the response to 1 μM sTrica-SK(5–13) [4] [%] | Molecule | % Trica-SKR1 (relative activation) ([1]; aequorin bioluminescence) [%] | % Trica-SKR2 (relative activation) ([2]; aequorin bioluminescence) [%] | other results
1 |  |  | FDDYGHMRa [2076[φ1]wp-2] | 25.8 | 19.7 | 
2 |  |  | DGY(SO3H)RPLQFa [1678B[φ1]wp-6, sulfated SK-like peptide encoded by C. elegans nlp-12] | 28.5 | 19.9 | 
3 |  |  | FDDYGAMRFa [2006[φ1]wp-1, alanine scan analog of nsTrica-SK] | 2.3 | 3.5 | 
4 |  |  | pQLASDDYGHMRFa [nsLocmi-SK, nonsulfated Locusta migratoria SK] | 22.2 | 18.2 | 
5 |  |  | HMRFa [2052[φ1]wp-3, tetrapeptide HMRFamide, truncated analog] | 43.4 | 33.4 | 
6 |  |  | DYGHMRFa [2010[φ1]wp-1, truncated nonsulfated SK analog] | 7.6 | 8.6 | 
7 |  |  | pQPSY(SO3H)DRDIMSFa [1679[φ1]wp-4, sulfated neuropeptide derived from C. elegans nlp-13] | 16.5 | 16.6 | 
8 |  |  | GHMRFa [2053[φ1]wp-4, truncated nonsulfated SK analog] | 13.3 | 44.6 | 
9 |  |  | DY(SO3H)RPLQFa [1678A[φ1]wp-4, sulfated SK-like peptide encoded by C. elegans nlp-12] | 40.8 | 32.6 | 
10 |  |  | FDDYAHMRFa [2007[φ1]wp-1, alanine scan analog of nsTrica-SK, glycine replaced] | 30.6 | 25.6 | 
11 |  |  | FDDYGHARFa [2005[φ1]wp-3, alanine scan analog of nsTrica-SK] | 5.1 | 11.1 | 
12 |  |  | pQLASDDY(SO3H)GHMRFa [sLocmi-SK, sulfated SK from the migratory locust, Locusta migratoria] | 75.0 | 79.9 | EC50 ([1]; aequorin bioluminescence, 1 fM to 1 μM, ± 95% confidence interval, three independent measurements in duplicate): 16.8 ± 4.6 nM; times less potent than sTrica-SK(5–13) in activating the Trica-SKR1 ([1]; ratio of EC50 values): about 150 times; EC50 ([2]; aequorin bioluminescence, 1 fM to 1 μM, three independent measurements in duplicate): 776 ± 443 nM; times less potent than sTrica-SK(5–13) as Trica-SKR2 agonist ([2]; ratio of EC50 values): ca. 1500 times
13 |  |  | SPVDYDRPIMAFa [1432-2[φ]wp-6, peptide derived from C. elegans nlp-13] | 16.4 | 11.2 | 
14 |  |  | FDDYGHMRFa [nsTrica-SK(5–13)] | 29.9 | 23.5 | 
15 |  |  | YGHMRFa [2011[φ1]wp-1, truncated nonsulfated SK analog] | 26.3 | 21.2 | 
16 |  |  | FDDYGHMRAa [2003[φ1]wp-2, alanine scan analog of nsTrica-SK] | 8.2 | 15.6 | 

Row | aequorin bioluminescence in CHO-WTA11 cells transfected with the receptor, peptide at 1 μM, % of the response to 1 μM sTrica-SK(5–13) [3] [%] | aequorin bioluminescence in CHO-WTA11 cells transfected with the receptor, peptide at 1 μM, % of the response to 1 μM sTrica-SK(5–13) [4] [%] | Molecule | % Trica-SKR1 (relative activation) ([1]; aequorin bioluminescence) [%] | % Trica-SKR2 (relative activation) ([2]; aequorin bioluminescence) [%] | other results
17 |  |  | FDDAGHMRFa [2008[φ1]wp-2, alanine scan analog of nsTrica-SK, tyrosine replaced] | 10.1 | 12.1 | 
18 |  |  | SPVDY(SO3H)DRPIMAFa [1567[φ1]wp-5, sulfated neuropeptide derived from C. elegans nlp-13] | 23.6 | 33.7 | 
19 |  |  | PVDY(SO3H)DRPIMAFa [1569[φ2]wp-4, sulfated neuropeptide derived from C. elegans nlp-13] | 6.2 | 13.4 | 
20 |  |  | SDDY(SO3H)GHMRFa [1835[φ2]wp-4, sulfated SK analog SDDY(SO3H)GHMRFa] | 58.2 | 41.4 | 
21 |  |  | DDYGHMRFa [2009[φ1]wp-1, truncated nonsulfated SK analog] | 27.2 | 17.1 | 
22 |  |  | FDDYGHMAFa [2004[φ1]wp-1, alanine scan analog of nsTrica-SK] | 5.9 | 7.3 | 
23 | 29.9 | 23.5 | FDDYGHMRF-NH2 [nonsulfated Trica-SK(5–13)] |  |  | 
24 | 10.1 | 12.1 | FDDAGHMRF-NH2 [2008[φ1]wp-2] |  |  | 
25 | 27.2 | 17.1 | DDYGHMRF-NH2 (ends and bridges not checked) [2009[φ1]wp-1] |  |  | 
26 | 30.6 | 25.6 | FDDYAHMRF-NH2 (ends and bridges not checked) [2007[φ1]wp-1] |  |  | 
27 | 5.1 | 11.1 | FDDYGHARF-NH2 [2005[φ1]wp-3] |  |  | 
28 | 2.3 | 3.5 | FDDYGAMRF-NH2 [2006[φ1]wp-1] |  |  | 
29 | 7.6 | 8.6 | DYGHMRF-NH2 (ends and bridges not checked) [2010[φ1]wp-1] |  |  | 
30 | 8.2 | 15.6 | FDDYGHMRA-NH2 [2003[φ1]wp-2] |  |  | 
31 | 22.2 | 18.2 | [pGlu]LASDDYGHMRF-NH2 (SMILES CSCC[C@H](NC(=O)[C@H](Cc1c[nH]cn1)NC(=O)CNC(=O)[C@H](Cc1ccc(O)cc1)NC(=O)[C@H](CC(=O)O)NC(=O)[C@H](CC(=O)O)NC(=O)[C@H](CO)NC(=O)[C@H](C)NC(=O)[C@H](CC(C)C)NC(=O)[C@@H]1CCC(=O)N1)C(=O)N[C@@H](CCCNC(=N)N)C(=O)N[C@@H](Cc1ccccc1)C(N)=O) [nsLocmi-SK] |  |  | 
32 | 5.9 | 7.3 | FDDYGHMAF-NH2 [2004[φ1]wp-1] |  |  | 
